Among the data in patent US11046699B2, “Pyrazolo-pyrimidin-amino-cycloalkyl compounds and their therapeutic uses” (RAPT THERAPEUTICS, INC., priority 2018, dated 2021) are IC50 values, retold here.

Sequence of GCN2 (Q9P2K8 whole entry): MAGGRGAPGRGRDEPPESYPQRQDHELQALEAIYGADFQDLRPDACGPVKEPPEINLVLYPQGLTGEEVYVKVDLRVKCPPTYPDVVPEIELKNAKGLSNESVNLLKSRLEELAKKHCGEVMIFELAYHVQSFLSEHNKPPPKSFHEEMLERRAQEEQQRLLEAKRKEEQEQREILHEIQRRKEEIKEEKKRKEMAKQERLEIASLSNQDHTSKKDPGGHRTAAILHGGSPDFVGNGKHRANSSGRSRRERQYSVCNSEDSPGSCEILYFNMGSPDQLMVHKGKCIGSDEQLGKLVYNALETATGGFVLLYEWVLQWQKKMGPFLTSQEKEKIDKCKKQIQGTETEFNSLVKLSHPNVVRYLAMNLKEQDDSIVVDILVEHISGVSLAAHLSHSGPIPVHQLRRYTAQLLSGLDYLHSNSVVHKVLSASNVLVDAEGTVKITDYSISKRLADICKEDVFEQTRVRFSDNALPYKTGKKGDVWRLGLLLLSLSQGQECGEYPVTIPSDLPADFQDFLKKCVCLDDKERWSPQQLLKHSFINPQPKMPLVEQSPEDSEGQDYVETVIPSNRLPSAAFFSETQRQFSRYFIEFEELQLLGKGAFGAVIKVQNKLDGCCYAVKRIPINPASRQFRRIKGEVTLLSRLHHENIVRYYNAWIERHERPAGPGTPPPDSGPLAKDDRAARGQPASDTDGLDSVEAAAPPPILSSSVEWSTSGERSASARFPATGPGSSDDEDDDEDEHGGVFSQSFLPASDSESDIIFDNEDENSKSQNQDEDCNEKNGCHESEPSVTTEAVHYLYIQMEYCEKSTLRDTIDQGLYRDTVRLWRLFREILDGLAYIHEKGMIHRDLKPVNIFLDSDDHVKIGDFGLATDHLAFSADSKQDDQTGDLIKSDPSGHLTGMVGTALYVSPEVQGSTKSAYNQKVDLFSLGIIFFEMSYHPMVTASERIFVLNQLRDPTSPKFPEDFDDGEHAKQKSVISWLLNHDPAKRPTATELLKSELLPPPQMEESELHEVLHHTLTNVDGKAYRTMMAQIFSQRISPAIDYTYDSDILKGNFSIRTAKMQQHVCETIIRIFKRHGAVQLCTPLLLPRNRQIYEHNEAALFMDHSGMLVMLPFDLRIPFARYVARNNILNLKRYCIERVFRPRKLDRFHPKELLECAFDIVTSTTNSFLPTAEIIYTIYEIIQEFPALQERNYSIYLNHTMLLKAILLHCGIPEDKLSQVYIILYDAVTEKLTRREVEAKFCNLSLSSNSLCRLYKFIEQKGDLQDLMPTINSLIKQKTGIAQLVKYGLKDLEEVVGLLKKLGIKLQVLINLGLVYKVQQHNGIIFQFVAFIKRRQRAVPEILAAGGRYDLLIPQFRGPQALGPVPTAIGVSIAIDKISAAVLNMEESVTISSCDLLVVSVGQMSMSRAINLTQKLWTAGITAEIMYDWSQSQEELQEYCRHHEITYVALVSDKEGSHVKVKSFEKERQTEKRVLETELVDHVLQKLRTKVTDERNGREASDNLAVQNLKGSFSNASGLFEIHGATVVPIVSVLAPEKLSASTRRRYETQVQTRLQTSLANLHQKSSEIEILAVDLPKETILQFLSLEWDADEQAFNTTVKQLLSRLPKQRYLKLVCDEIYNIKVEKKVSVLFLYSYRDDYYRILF

In one test the target is GCN2 (Homo sapiens, UniProt Q9P2K8). Put plainly: GCN2 enzymatic endpoint assay: phosphorylation of GFP-eIF2α measured by TR-FRET (Lanthascreen). It is filed as biochemical. The following applies: GCN2 biochemical IC50; 4 nM GCN2, 2 μM ATP, 80 nM GFP-eIF2α, 90 min RT; read-out: GCN2 activity. Summed up:
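Read-out is the TR-FRET ratio of acceptor signal at 520 nm to terbium donor at 495 nm, rising with antibody binding to phosphorylated GFP-eIF2α. Endpoint format: 2 μM ATP, 80 nM substrate, 90 minutes at room temperature, EDTA stop.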
A general note: Time-resolved FRET reads energy transfer from a long-lived donor to a nearby acceptor.
In the case of `CNC(=O)[C@]1(C)CC[C@@H](Nc2ncc3c(Br)nn(-c4ccc(-c5nnc(C)s5)c(CCC#N)c4)c3n2)C1` [Example 49, (1R,3R)-3-((3-bromo-1-(3-(2-cyanoethyl)-4-(5-methyl-1,3,4-thiadiazol-2-yl)phenyl)-1H-pyrazolo[3,4-d]pyrimidin-6-yl)amino)-N,1-dimethylcyclopentane-1-carboxamide], the IC50 was 25 to 200 nM.

Still in this test, the particulars now being: tested as described in Example 77; compound and/or hydrochloride, dihydrochloride or trifluoroacetic acid salt; read-out: IC 50 Activity.
As for `COCCO[C@@H]1CCN(C(=O)[C@@H]2CC[C@@H](Nc3ncc4c(Br)nn(-c5ccc6ncccc6c5)c4n3)C2)C1` [((1R,3R)-3-((3-bromo-1-(quinolin-6-yl)-1H-pyrazolo[3,4-d]pyrimidin-6-yl)amino)cyclopentyl)((R)-3-(2-methoxyethoxy)pyrrolidin-1-yl)methanone], the IC50 is 25 to 200 nM.
The same measure, in the same setting: then `CNS(=O)(=O)[C@H]1CC[C@@H](Nc2ncc3c(Br)nn(-c4ccc5ncccc5c4)c3n2)C1` [(1S,3R)-3-((3-bromo-1-(quinolin-6-yl)-1H-pyrazolo[3,4-d]pyrimidin-6-yl)amino)-N-methylcyclopentane-1-sulfonamide], with 500 to 1000 nM.
Take `CNC(=O)C1(C(C)C#N)CC[C@@H](Nc2ncc3c(Br)nn(-c4ccc(-c5nnc(C)s5)c(CCC#N)c4)c3n2)C1` (some centres unmarked): the IC50 fell in the range of 25 to 200 nM.
In the case of `CNC(=O)C1(C)CC[C@@H](Nc2ncc3c(Br)nn(-c4cc(CO)cc(C(C)(C)C)c4)c3n2)C1` (some centres unmarked), the IC50 lay in the range of 25 to 200 nM.
Still for that read-out and setting: then `Cc1nnc(-c2ccc(-n3nc(Br)c4cnc(N[C@@H]5CC[C@@H](P(C)(C)=O)C5)nc43)cc2CCS(C)(=O)=O)s1` [3-bromo-N-[(1R,3R)-3-dimethylphosphoryl-cyclopentyl]-1-[3-(2-methylsulfonylethyl)-4-(5-methyl-1,3,4-thiadiazol-2-yl)phenyl] pyrazolo[3,4-d]pyrimidin-6-amine], with 25 to 200 nM.
For the molecule `C[C@H]1C(=O)N(C)CCN1C(=O)[C@@H]1CC[C@@H](Nc2ncc3c(Br)nn(-c4cc(C#N)c5ncccc5c4)c3n2)C1` [6-(3-bromo-6-(((1R,3R)-3-((S)-2,4-dimethyl-3-oxopiperazine-1-carbonyl)cyclopentyl)amino)-1H-pyrazolo[3,4-d]pyrimidin-1-yl) quinoline-8-carbonitrile], the IC50 is below 25 nM.
Same read-out and setting: then `CCC(=O)N1CCN(C(=O)[C@@H]2CC[C@@H](Nc3ncc4c(Br)nn(-c5cc(F)c6ncccc6c5)c4n3)C2)C1` [1-[3-[(1R,3R)-3-[[3-bromo-1-(8-fluoro-6-quinolyl)pyrazolo[3,4-d]pyrimidin-6-yl]amino]cyclopentanecarbonyl]imidazolidin-1-yl]propan-1-one], with below 25 nM; and `CN(C)CCNC(=O)[C@@H]1CC[C@@H](Nc2ncc3c(Br)nn(-c4ccc5ncccc5c4)c3n2)C1` [(1R,3R)-3-((3-bromo-1-(quinolin-6-yl)-1H-pyrazolo[3,4-d]pyrimidin-6-yl)amino)-N-(2-(dimethylamino)ethyl)cyclopentane-1-carboxamide], with 25 to 200 nM; and `CNC(=O)[C@]1(C)CC[C@@H](Nc2ncc3c(Br)nn(-c4cc(Cl)cc(C#N)c4)c3n2)C1` [(1R,3R)-3-[[3-bromo-1-(3-chloro-5-cyano-phenyl)pyrazolo[3,4-d]pyrimidin-6-yl]amino]-N,1-dimethyl-cyclopentanecarboxamide], with 25 to 200 nM.
For `Cc1nnc(-c2ccc(-n3nc(Br)c4cnc(N[C@@H]5CC[C@@](C)(CO)C5)nc43)cc2CCC#N)s1` [3-[5-[3-bromo-6-[[(1R,3R)-3-(hydroxy-methyl)-3-methyl-cyclopentyl]amino]pyrazolo[3,4-d]pyrimidin-1-yl]-2-(5-methyl-1,3,4-thiadiazol-2-yl)phenyl] propanenitrile], the IC50 is 25 to 200 nM.
Same read-out and setting: then `CNC(=O)[C@]1(C)CC[C@@H](Nc2ncc3c(Br)nn(-c4ccc(-c5nnc(C(F)F)o5)cc4)c3n2)C1` [(1R,3R)-3-[[3-bromo-1-[4-[5-(difluoro-methyl)-1,3,4-oxadiazol-2-yl]phenyl]pyrazolo[3,4-d]pyrimidin-6-yl]amino]-N,1-dimethyl-cyclopentanecarboxamide], with 25 to 200 nM; and `C[C@@]1(C(=O)N2CNC(=O)C2)CC[C@@H](Nc2ncc3c(Br)nn(-c4cc(F)c5ncccc5c4)c3n2)C1` [1-[(1R,3R)-3-[[3-bromo-1-(8-fluoro-6-quinolyl)pyrazolo[3,4-d]pyrimidin-6-yl]amino]-1-methyl-cyclopentanecarbonyl] imidazolidin-4-one], with below 25 nM.
Same read-out and setting: then `CNC(=O)[C@]1(C)CC[C@@H](Nc2ncc3c(Br)nn(-c4cc5c(c(OCC(F)F)c4)N(C)C(=O)CO5)c3n2)C1` [(1R,3R)-3-[[3-bromo-1-[5-(2,2-difluoro-ethoxy)-4-methyl-3-oxo-1,4-benzoxazin-7-yl]pyrazolo[3,4-d]pyrimidin-6-yl]amino]-N,1-dimethyl-cyclopentanecarboxamide], with below 25 nM.
Same read-out and setting: then `CNC(=O)[C@]1(C)CC[C@@H](Nc2ncc3c(Br)nn(-c4cc(Cl)cc(C(=O)N(C)C)c4)c3n2)C1` [3-[3-bromo-6-[[(1R,3R)-3-methyl-3-(methylcarbamoyl)cyclopentyl]amino]pyrazolo[3,4-d]pyrimidin-1-yl]-5-chloro-N,N-dimethyl-benzamide], with 25 to 200 nM; and `C[C@H]1COCCN1C(=O)[C@@H]1CC[C@@H](Nc2ncc3c(Br)nn(-c4ccc5ncccc5c4)c3n2)C1` [((1R,3R)-3-((3-bromo-1-(quinolin-6-yl)-1H-pyrazolo[3,4-d]pyrimidin-6-yl)amino)cyclopentyl)((S)-3-methylmorpholino) methanone], with 25 to 200 nM; and `O=C(Nc1cnn(C2CC2)c1)[C@@H]1CC[C@@H](Nc2ncc3c(Br)nn(-c4cc(F)c5ncccc5c4)c3n2)C1` [(1R,3R)-3-((3-bromo-1-(8-fluoroquinolin-6-yl)-1H-pyrazolo[3,4-d]pyrimidin-6-yl)amino)-N-(1-cyclopropyl-1H-pyrazol-4-yl)cyclopentane-1-carboxamide], with 200 to 500 nM.
On to `O=C(NCCc1cnc[nH]1)[C@@H]1CC[C@@H](Nc2ncc3c(Br)nn(-c4cc(F)c5ncccc5c4)c3n2)C1` [(1R,3R)-N-(2-(1H-imidazol-5-yl)ethyl)-3-((3-bromo-1-(8-fluoroquinolin-6-yl)-1H-pyrazolo [3,4-d]pyrimidin-6-yl)amino)cyclopentane-1-carboxamide], for which the IC50 lay in the range of 25 to 200 nM.
In the case of `CNC(=O)C1(C)CC[C@@H](Nc2ncc3c(Br)nn(-c4ccc5cnccc5c4)c3n2)C1` (mixture of isomers), the IC50 was 200 to 500 nM.
In the case of `N#Cc1cc(-n2nc(Br)c3cnc(N[C@@H]4CC[C@@H](C(=O)N5CC(N6CCC(F)(F)C6)C5)C4)nc32)cc2cccnc12` [6-(3-bromo-6-(((1R,3R)-3-(3-(3,3-difluoro-pyrrolidin-1-yl)azetidine-1-carbonyl)cyclo-pentyl)amino)-1H-pyrazolo[3,4-d]pyrimidin-1-yl)quinoline-8-carbonitrile], the IC50 is 25 to 200 nM.
The same measure, in the same setting: then `CNC(=O)[C@]1(C)CC[C@@H](Nc2ncc3c(Br)nn(-c4ccc5c(c4)CS(=O)(=O)C5)c3n2)C1` [(1R,3R)-3-[[3-bromo-1-(2,2-dioxo-1,3-dihydro-2-benzothiophen-5-yl)pyrazolo[3,4-d]pyrimidin-6-yl]amino]-N,1-dimethyl-cyclopentanecarboxamide], with 25 to 200 nM; and `COCCNC(=O)C12CCC(Nc3ncc4c(Br)nn(-c5ccc6ncccc6c5)c4n3)(CC1)C2` [4-((3-bromo-1-(quinolin-6-yl)-1H-pyrazolo [3,4-d]pyrimidin-6-yl)amino)-N-(2-methoxyethyl)bicyclo[2.2.1]heptane-1-carboxamide], with 200 to 500 nM.
Still for that read-out and setting: then `CNC(=O)[C@]1(C)CC[C@@H](Nc2ncc3c(Br)nn(-c4cc(Cl)cc([C@H]5COC(=O)N5)c4)c3n2)C1` [(1R,3R)-3-[[3-bromo-1-[3-chloro-5-[(4S)-2-oxooxazolidin-4-yl]phenyl]pyrazolo[3,4-d]pyrimidin-6-yl]amino]-N,1-dimethyl-cyclopentanecarboxamide], with 25 to 200 nM; and `CNC(=O)[C@]1(C)CC[C@@H](Nc2ncc3c(Br)nn(-c4ccc(C#N)c(CO)c4)c3n2)C1` [(1R,3R)-3-[[3-bromo-1-[4-cyano-3-(hydroxymethyl)phenyl]pyrazolo[3,4-d]pyrimidin-6-yl]amino]-N,1-dimethyl-cyclopentanecarboxamide], with 25 to 200 nM; and `C[C@H](N)c1cc(Cl)cc(-n2nc(Br)c3cnc(N[C@@H]4CCC5(CC(=O)N(C)C5=O)C4)nc32)c1` (some centres unmarked), with 25 to 200 nM.
Same read-out and setting: then `CNC(=O)[C@]1(C)CC[C@@H](Nc2ncc3c(Br)nn(-c4cc(CCNC(=O)OC)c5ncccc5c4)c3n2)C1` [methyl N-[2-[6-[3-bromo-6-[[(1R,3R)-3-methyl-3-(methylcarbamoyl)cyclopentyl]amino]pyrazolo[3,4-d]pyrimidin-1-yl]-8-quinolyl]ethyl]carbamate], with 25 to 200 nM; and `CNC(=O)[C@]1(C)CC[C@@H](Nc2ncc3c(Br)nn(-c4ccc(-c5nnc(C)o5)cc4)c3n2)C1` [(1R,3R)-3-[[3-bromo-1-[4-(5-methyl-1,3,4-oxadiazol-2-yl)phenyl]pyrazolo[3,4-d]pyrimidin-6-yl]amino]-N,1-dimethyl-cyclo-pentanecarboxamide], with below 25 nM; and `CNC(=O)[C@]1(C)CC[C@@H](Nc2ncc3c(Br)nn(-c4cc(OC)c5c(c4)OCC(=O)N5C)c3n2)C1` [(1R,3R)-3-[[3-bromo-1-(5-methoxy-4-methyl-3-oxo-1,4-benzoxazin-7-yl)pyrazolo[3,4-d]pyrimidin-6-yl]amino]-N,1-dimethyl-cyclopentanecarboxamide], with below 25 nM.
In the case of `O=C(NCCN1CCOCC1)[C@@H]1CC[C@@H](Nc2ncc3c(Br)nn(-c4ccc5ncccc5c4)c3n2)C1` [(1R,3R)-3-((3-bromo-1-(quinolin-6-yl)-1H-pyrazolo[3,4-d]pyrimidin-6-yl)amino)-N-(2-morpholinoethyl)cyclopentane-1-carboxamide], the IC50 lay within 25 to 200 nM.
